Results from patent publication US12319697B2, “Process for preparing imidazole derivatives” (Bayer Aktiengesellschaft, priority 2018, dated 2025).

Legend:
[1] = log P[a] by reversed-phase HPLC (C18), LC-UV in the acidic range, EEC Directive 79/831 Annex V.A8; format: physicochemical; details: 0.9 ml/l formic acid in water and 1.0 ml/l formic acid in acetonitrile, gradient 10% to 95% acetonitrile; for chromatographic logP: reversed-phase HPLC column (C18)
Description: (§1) The log P values were determined according to EEC Directive 79/831 Annex V.A8 by HPLC (high-performance liquid chromatography) on a reversed-phase column (C18) using the following methods: The log P[a] value is determined by LC-UV measurement in the acidic range using 0.9 ml/1 formic acid in water and 1.0 ml/1 formic acid in acetonitrile as mobile phases (linear gradient from 10% acetonitrile to 95% acetonitrile). Calibration was carried out using a homologous series of straight-chain alkan-2-ones (having 3 to 16 carbon atoms) with known log P values. The values between successive alkanones are determined by linear regression.

[2] = log P[n] by reversed-phase HPLC (C18), LC-UV in the neutral range, EEC Directive 79/831 Annex V.A8; format: physicochemical; details: 79 mg/l ammonium carbonate in water and acetonitrile, gradient 10% to 95% acetonitrile; for chromatographic logP: reversed-phase HPLC column (C18)
Description: as §1, with “acetonitrile). The log P[n] value is determined by LC-UV measurement in the neutral range using 79 mg/l ammonium carbonate in water and acetonitrile as mobile phases (linear gradient from 10% acetonitrile to 95% acetonitrile).” for “acetonitrile).”

With `CCSc1c(-c2nc3cc(C(F)(F)C(F)(F)F)nnc3n2C)nc(C2CC2)n1C` the chromatographic logP [1] was 3.85 and the chromatographic logP [2] was 3.75.

Compound `CCSc1c(I)ncn1C` [Example 8 Step 1, 5-(ethylsulfanyl)-4-iodo-1-methyl-1H-imidazole] has a chromatographic logP [1] of 1.61 and a chromatographic logP [2] of 1.91.

For `CCSc1c(-c2nc3cc(C(F)(F)F)ncc3n2C)nc(Br)n1C` [Example 8, 2-[2-bromo-5-(ethylsulfanyl)-1-methyl-1H-imidazol-4-yl]-3-methyl-6-(trifluoromethyl)-3H-imidazo[4,5-c]pyridine], the chromatographic logP [1] was 3.04 and the chromatographic logP [2] was 2.85.

For `CCS(=O)(=O)c1c(-c2nc3cc(C(F)(F)C(F)(F)F)nnc3n2C)ncn1C` [Example 4, 6-[5-(ethylsulfonyl)-1-methyl-1H-imidazol-4-yl]-7-methyl-3-(pentafluoroethyl)-7H-imidazo[4,5-c]pyridazine], the chromatographic logP [1] was 2.2 and the chromatographic logP [2] was 2.21.

For `CCSc1c(-c2nc3cc(C(F)(F)C(F)(F)F)nnc3n2C)ncn1C` [Example 3, 6-[5-(ethylsulfanyl)-1-methyl-1H-imidazol-4-yl]-7-methyl-3-(pentafluoroethyl)-7H-imidazo[4,5-c]pyridazine], the chromatographic logP [1] was 2.88 and the chromatographic logP [2] was 2.86.

In the case of `CCSc1c(-c2nc3cc(C(F)(F)F)nnc3n2C)ncn1C` [Example 1, 6-[5-(ethylsulfanyl)-1-methyl-1H-imidazol-4-yl]-7-methyl-3-(trifluoromethyl)-7H-imidazo[4,5-c]pyridazine], the chromatographic logP [1] is reported as 2.26 and the chromatographic logP [2] is reported as 2.37.

`CCSc1c(-c2nc3cc(SC(F)(F)F)nnc3n2C)nc(-c2ccc(Cl)cc2)n1C` gave a chromatographic logP [1] of 4.51 and a chromatographic logP [2] of 4.34.

`CCSc1c(-c2nc3cc(C(F)(F)C(F)(F)F)nnc3n2C)nc(Br)n1C` [Example 5, 6-[2-bromo-5-(ethylsulfanyl)-1-methyl-1H-imidazol-4-yl]-7-methyl-3-(pentafluoroethyl)-7H-imidazo[4,5-c]pyridazine] showed a chromatographic logP [1] of 3.76.

Work on `CCSc1c(-c2nc3cc(C(F)(F)C(F)(F)F)nnc3n2C)nc(-c2ccc(Cl)s2)n1C` yielded a chromatographic logP [1] of 5.14 and a chromatographic logP [2] of 4.92.

For `CCSc1c(-c2nc3cc(C(F)(F)F)nnc3n2C)nc(-c2ccc(Cl)cc2)n1C` [Example 2, 6-[2-(4-chlorophenyl)-5-(ethylsulfanyl)-1-methyl-1H-imidazol-4-yl]-7-methyl-3-(trifluoromethyl)-7H-imidazo[4,5-c]pyridazine], the “log P[a]” value ([1]; listed as Comparative Example) was 4.35, the chromatographic logP [1] was 4.23 and the “log P[n]” value ([2]; listed as Comparative Example) was 4.07. The chromatographic logP [2] was 4.08.

For `CCSc1c(-c2nc3cc(Br)cnc3n2C)nc(C2CC2)n1C` [Example 7, 6-bromo-2-[2-cyclopropyl-5-(ethylsulfanyl)-1-methyl-1H-imidazol-4-yl]-3-methyl-3H-imidazo[4,5-b]pyridine], the chromatographic logP [1] was 2.92 and the chromatographic logP [2] was 3.23.

Work on `CCSc1c(-c2nc3cc(C(F)(F)C(F)(F)F)nnc3n2C)nc(-c2ccc(Cl)cc2)n1C` yielded a chromatographic logP [1] of 4.82 and a chromatographic logP [2] of 4.6.

Work on `Cn1cnc2cc(C(F)(F)F)ncc21` [Example 8 Step 3, 3-methyl-6-(trifluoromethyl)-3H-imidazo[4,5-c]pyridine] yielded a chromatographic logP [1] of 1.04 and a chromatographic logP [2] of 1.1.

In the case of `CCSc1c(-c2nc3cc(C(F)(F)C(F)(F)F)nnc3n2C)nc(-c2ccc(Cl)cn2)n1C`, the chromatographic logP [1] is reported as 5.25 and the chromatographic logP [2] is reported as 4.66.

Compound `CCSc1c(I)nc(Br)n1C` [Example 8 Step 2, 2-bromo-5-(ethylsulfanyl)-4-iodo-1-methyl-1H-imidazole] has a chromatographic logP [1] of 2.77 and a chromatographic logP [2] of 2.68.

`CCSc1c(-c2nc3cc(C(F)(F)C(F)(F)F)ncc3n2C)ncn1C` [Example 6, 2-[5-(ethylsulfanyl)-1-methyl-1H-imidazol-4-yl]-3-methyl-6-(pentafluoroethyl)-3H-imidazo[4,5-c]pyridine] showed a chromatographic logP [1] of 2.7 and a chromatographic logP [2] of 2.71.

`CCSc1c(-c2nc3cc(SC(F)(F)F)nnc3n2C)nc(C2CC2)n1C` showed a chromatographic logP [1] of 3.5 and a chromatographic logP [2] of 3.4.
